Measured values taken from publication PMC12118597 (Science Advances, 2025).
Where “and” joins values, the source holds several entries; their conditions need not be identical. Equal entries are not always repeated.

Each compound was assayed against T1, SARS-CoV-2 NSP3 macrodomain (Mac1) (Severe acute respiratory syndrome coronavirus 2, UniProt P0DTD1) (assay: biochemical). Settings: Single dose, concentration 200 μM.
Type: binding

Going from `C#CCC(CO)Nc1ncnc2[nH]ccc12` (stereo not shown) [AVI-3644] to `OCC(CC1CC1)Nc1ncnc2[nH]ccc12` (stereo not shown) [AVI-3662], the Average % competition rises from 43% to 44%.

Going from `OCC(Nc1ncnc2[nH]ccc12)c1ccccc1` (stereo not shown) [AVI-3715] to `Cc1ccccc1CC(CO)Nc1ncnc2[nH]ccc12` (stereo not shown) [AVI-3674], the Average % competition falls from 54% to 32%.

First: OCC(CC1CCCC1)Nc1ncnc2[nH]ccc12 (stereo not shown) [AVI-3691]
Second: OCC(Nc1ncnc2[nH]ccc12)C1CCC1 (stereo not shown) [AVI-3638]
The Average % competition of the first is lower: 52% for the first, 77% for the second.

Going from `OCC(Nc1ncnc2[nH]ccc12)C1CCOC1` (stereo not shown) [AVI-3679] to `CC(C)(C)CC(CO)Nc1ncnc2[nH]ccc12` (stereo not shown) [AVI-3648], the Average % competition falls from 35% to 27%.

First: O=C(O)C(F)(F)F.O[C@H]1CCC[C@@H]1Nc1ncnc2[nH]ccc12 [AVI-3639]
Second: CC(O)C(C)Nc1ncnc2[nH]ccc12 (stereo not shown) [AVI-5158]
The Average % competition of the first is higher: 74% for the first, 32% for the second.

First: CCC(Nc1ncnc2[nH]ccc12)C(C)O (stereo not shown) [AVI-3635]
Second: OCC(Cc1ccccn1)Nc1ncnc2[nH]ccc12 (stereo not shown) [AVI-3696]
The Average % competition of the first is higher: 54% for the first, 34% for the second.

`OCC(CC(O)c1ccccc1)Nc1ncnc2[nH]ccc12` (stereo not shown) [AVI-3642] was tested, and the Average % competition was less than 10%.
With `OCC(CN1CCCCC1)Nc1ncnc2[nH]ccc12` (stereo not shown) [AVI-3677] the Average % competition was less than 10%.
In the case of `Cc1ccc(CC(CO)Nc2ncnc3[nH]ccc23)cc1C` (stereo not shown) [AVI-3684], the Average % competition is reported as less than 10%.

Same assay, conditions: compound at 200 μM; mean of three to four technical replicates; read-out: % competition at 200 μM (preliminary HTRF screen)

Going from `C#CCC(CO)Nc1ncnc2[nH]ccc12` (stereo not shown) [AVI-3644] to `OCC(CC1CC1)Nc1ncnc2[nH]ccc12` (stereo not shown) [AVI-3662], the inhibition at 200 µM rises from 43% to 44%.

First: OCC(CC(O)c1ccccc1)Nc1ncnc2[nH]ccc12 (stereo not shown) [AVI-3642]
Second: OCC(Nc1ncnc2[nH]ccc12)c1ccccc1 (stereo not shown) [AVI-3715]
The inhibition at 200 µM of the first is lower: less than 10% for the first, 54% for the second.

Compared with `Cc1ccccc1CC(CO)Nc1ncnc2[nH]ccc12` (stereo not shown) [AVI-3674], `OCC(Cc1ccccn1)Nc1ncnc2[nH]ccc12` (stereo not shown) [AVI-3696] is higher in inhibition at 200 µM: 32% for the first, 34% for the second.

Going from `CC1CC(C(=O)O)CCN1C(=O)c1ccc2c(c1)OCC(=O)N2` (stereo not shown) [AVI-303] to `O=C(O)C(F)(F)F.O[C@H]1CCC[C@@H]1Nc1ncnc2[nH]ccc12` [AVI-3639], the inhibition at 200 µM rises from less than 10% to 74%.

First: OCC(CC1CCCC1)Nc1ncnc2[nH]ccc12 (stereo not shown) [AVI-3691]
Second: OCC(Nc1ncnc2[nH]ccc12)C1CCC1 (stereo not shown) [AVI-3638]
The inhibition at 200 µM of the first is lower: 53% for the first, 77% for the second.

Going from `Cc1c(C)n(Cc2ccccc2)c2ncnc(N)c12` [AVI-321] to `Cc1ccc(CC(CO)Nc2ncnc3[nH]ccc23)cc1C` (stereo not shown) [AVI-3684], the inhibition at 200 µM falls from 19% to less than 10%.

First: OCC(Nc1ncnc2[nH]ccc12)C1CCOC1 (stereo not shown) [AVI-3679]
Second: OCC(CN1CCCCC1)Nc1ncnc2[nH]ccc12 (stereo not shown) [AVI-3677]
The inhibition at 200 µM of the first is higher: 35% for the first, less than 10% for the second.

First: CCC(Nc1ncnc2[nH]ccc12)C(C)O (stereo not shown) [AVI-3635]
Second: CC(O)C(C)Nc1ncnc2[nH]ccc12 (stereo not shown) [AVI-5158]
The inhibition at 200 µM of the first is higher: 54% for the first, 32% for the second.

Going from `Cc1cc2c(=O)n(CCN3C(=O)c4ccccc4S3(=O)=O)nnc2s1` [AVI-341] to `CC(C)(C)CC(CO)Nc1ncnc2[nH]ccc12` (stereo not shown) [AVI-3648], the inhibition at 200 µM rises from 11% to 27%.

Same assay, conditions: single dose concentration 200 μM (TS-FrankenROCS series)

Compound `Cc1cc2c(=O)n(CCN3C(=O)c4ccccc4S3(=O)=O)nnc2s1` [AVI-341] has an Average % competition of 11%.

Same assay, conditions: single dose concentration 200 μM (TS-FrankenROCS series); read-out: Average % competition

`CC1CC(C(=O)O)CCN1C(=O)c1ccc2c(c1)OCC(=O)N2` (stereo not shown) [AVI-303] was tested, and the inhibition at 200 µM was less than 10%.

These compounds were tested against T1, SARS-CoV-2 NSP3 macrodomain (Mac1) (assay: not given). Settings: crystal soak 10 mM; TFA/DMSO background map.
Type: binding

Compared with `C#CCC(CO)Nc1ncnc2[nH]ccc12` (stereo not shown) [AVI-3644], `OCC(CC1CC1)Nc1ncnc2[nH]ccc12` (stereo not shown) [AVI-3662] is lower in “PanDDA run, TFA/DMSO background map: 1-BDC” value: 0.11 for the first, 0.09 for the second.

Going from `OCC(CC(O)c1ccccc1)Nc1ncnc2[nH]ccc12` (stereo not shown) [AVI-3642] to `OCC(Nc1ncnc2[nH]ccc12)c1ccccc1` (stereo not shown) [AVI-3715], the “PanDDA run, TFA/DMSO background map: 1-BDC” value falls from 0.17 to 0.09.

Compared with `Cc1ccccc1CC(CO)Nc1ncnc2[nH]ccc12` (stereo not shown) [AVI-3674], `CC(C)(C)CC(CO)Nc1ncnc2[nH]ccc12` (stereo not shown) [AVI-3648] is higher in “PanDDA run, TFA/DMSO background map: 1-BDC” value: 0.15 for the first, 0.16 for the second.

`OCC(CC1CCCC1)Nc1ncnc2[nH]ccc12` (stereo not shown) [AVI-3691] and `OCC(Nc1ncnc2[nH]ccc12)C1CCC1` (stereo not shown) [AVI-3638] are the same in “PanDDA run, TFA/DMSO background map: 1-BDC” value: 0.1 for the first, 0.1 for the second.

Compared with `OCC(Nc1ncnc2[nH]ccc12)C1CCOC1` (stereo not shown) [AVI-3679], `OCC(CN1CCCCC1)Nc1ncnc2[nH]ccc12` (stereo not shown) [AVI-3677] is higher in “PanDDA run, TFA/DMSO background map: 1-BDC” value: 0.11 for the first, 0.18 for the second.

In the case of `O=C(O)C(F)(F)F.O[C@H]1CCC[C@@H]1Nc1ncnc2[nH]ccc12` [AVI-3639], the “PanDDA run, TFA/DMSO background map: 1-BDC” value is reported as 0.09.

With `C#CCC(CO)Nc1ncnc2[nH]ccc12` (stereo not shown) [AVI-3644] the “PanDDA run, TFA/DMSO background map: Hit” value was “TRUE”.
In the case of `OCC(CC(O)c1ccccc1)Nc1ncnc2[nH]ccc12` (stereo not shown) [AVI-3642], the “PanDDA run, TFA/DMSO background map: Hit” value is reported as “TRUE”.
With `OCC(Nc1ncnc2[nH]ccc12)c1ccccc1` (stereo not shown) [AVI-3715] the “PanDDA run, TFA/DMSO background map: Hit” value was “TRUE”.
For `Cc1ccccc1CC(CO)Nc1ncnc2[nH]ccc12` (stereo not shown) [AVI-3674], the “PanDDA run, TFA/DMSO background map: Hit” value was “TRUE”.
`OCC(CC1CCCC1)Nc1ncnc2[nH]ccc12` (stereo not shown) [AVI-3691] was tested, and the “PanDDA run, TFA/DMSO background map: Hit” value was “TRUE”.
In the case of `OCC(Nc1ncnc2[nH]ccc12)C1CCC1` (stereo not shown) [AVI-3638], the “PanDDA run, TFA/DMSO background map: Hit” value is reported as “TRUE”.
In the case of `OCC(Nc1ncnc2[nH]ccc12)C1CCOC1` (stereo not shown) [AVI-3679], the “PanDDA run, TFA/DMSO background map: Hit” value is reported as “TRUE”.
With `OCC(CN1CCCCC1)Nc1ncnc2[nH]ccc12` (stereo not shown) [AVI-3677] the “PanDDA run, TFA/DMSO background map: Hit” value was “TRUE”.
For `OCC(CC1CC1)Nc1ncnc2[nH]ccc12` (stereo not shown) [AVI-3662], the “PanDDA run, TFA/DMSO background map: Hit” value was “TRUE”.
`O=C(O)C(F)(F)F.O[C@H]1CCC[C@@H]1Nc1ncnc2[nH]ccc12` [AVI-3639] was tested, and the “PanDDA run, TFA/DMSO background map: Hit” value was “TRUE”.
In the case of `CCC(Nc1ncnc2[nH]ccc12)C(C)O` (stereo not shown) [AVI-3635], the “PanDDA run, TFA/DMSO background map: Hit” value is reported as “TRUE”.
For `CC(C)(C)CC(CO)Nc1ncnc2[nH]ccc12` (stereo not shown) [AVI-3648], the “PanDDA run, TFA/DMSO background map: Hit” value was “TRUE”.

For `CCC(Nc1ncnc2[nH]ccc12)C(C)O` (stereo not shown) [AVI-3635], the “PanDDA run, TFA/DMSO background map: 1-BDC” value was 0.11 and 0.08.

Same assay, conditions: ligand modeling, Mac1 crystal soak

`C#CCC(CO)Nc1ncnc2[nH]ccc12` (stereo not shown) [AVI-3644] and `OCC(CC1CC1)Nc1ncnc2[nH]ccc12` (stereo not shown) [AVI-3662] are the same in “Number of isomers bound” value: 1 for the first, 1 for the second.

`OCC(CC(O)c1ccccc1)Nc1ncnc2[nH]ccc12` (stereo not shown) [AVI-3642] and `OCC(Nc1ncnc2[nH]ccc12)c1ccccc1` (stereo not shown) [AVI-3715] are the same in “Number of isomers bound” value: 1 for the first, 1 for the second.

First: Cc1ccccc1CC(CO)Nc1ncnc2[nH]ccc12 (stereo not shown) [AVI-3674]
Second: OCC(Cc1ccccn1)Nc1ncnc2[nH]ccc12 (stereo not shown) [AVI-3696]
The “Number of isomers bound” value of the first is lower: 1 for the first, 2 for the second.

`CC1CC(C(=O)O)CCN1C(=O)c1ccc2c(c1)OCC(=O)N2` (stereo not shown) [AVI-303] and `O=C(O)C(F)(F)F.O[C@H]1CCC[C@@H]1Nc1ncnc2[nH]ccc12` [AVI-3639] are the same in “Number of isomers bound” value: 1 for the first, 1 for the second.

`OCC(CC1CCCC1)Nc1ncnc2[nH]ccc12` (stereo not shown) [AVI-3691] and `OCC(Nc1ncnc2[nH]ccc12)C1CCC1` (stereo not shown) [AVI-3638] are the same in “Number of isomers bound” value: 1 for the first, 1 for the second.

Compared with `Cc1c(C)n(Cc2ccccc2)c2ncnc(N)c12` [AVI-321], `Cc1ccc(CC(CO)Nc2ncnc3[nH]ccc23)cc1C` (stereo not shown) [AVI-3684] is higher in “Number of isomers bound” value: 1 for the first, 2 for the second.

`OCC(Nc1ncnc2[nH]ccc12)C1CCOC1` (stereo not shown) [AVI-3679] and `OCC(CN1CCCCC1)Nc1ncnc2[nH]ccc12` (stereo not shown) [AVI-3677] are the same in “Number of isomers bound” value: 1 for the first, 1 for the second.

`CCC(Nc1ncnc2[nH]ccc12)C(C)O` (stereo not shown) [AVI-3635] and `CC(C)(C)CC(CO)Nc1ncnc2[nH]ccc12` (stereo not shown) [AVI-3648] are the same in “Number of isomers bound” value: 1 for the first, 1 for the second.

With `Cc1cc2c(=O)n(CCN3C(=O)c4ccccc4S3(=O)=O)nnc2s1` [AVI-341] the “Number of isomers bound” value was 1.

Same assay, conditions: stereoisomer(s) modeled as bound, residues 201/202/203

With `Cc1ccc(CC(CO)Nc2ncnc3[nH]ccc23)cc1C` (stereo not shown) [AVI-3684] the Isomers modeled was “R,S”.
With `OCC(Cc1ccccn1)Nc1ncnc2[nH]ccc12` (stereo not shown) [AVI-3696] the Isomers modeled was “R,S”.

Same assay, conditions: stereoisomer(s)/conformations of the soaked ligand modeled in the Mac1 crystal structure

For `CC(O)C(C)Nc1ncnc2[nH]ccc12` (stereo not shown) [AVI-5158], the Isomers modeled was “RS,RR”.
